For the test, the system named is U937 cells. As to the kind of experiment: Cellular assay in U937 cells, TNFα/zVAD.fmk-induced cell death (necroptosis), MTS readout. Type of test: cell-based. The note with it: Homo sapiens, U-937. An excerpt: Cellular Assay in U937 Cells to Measure the Activity of RIPK1-Inhibitors on Cell Death (Necroptosis).
Upon TNF-Receptor I ligation, Ser/Thr kinase RIPK1 is recruited to a transient receptor complex I. Upon modification of RIPK1 which promotes activation of RIPK1, complex […] can form, that involves recruitment of RIPK3 and MLKL (mixed lineage-kinase domain-like protein) which then translocates from the cytosol to the plasma membrane to execute cell death (Cai, Z. et al, Nat. Cell Biol. (2014)16:55-65).
Cell death was quantified in 96 well plates by determination of the amount of live cell using a CellTiter 96 AQueous reagent (Promega), a calorimetric method to measure the amount of live cells by reducing tetrazolium compound [3-(4,5-dimethylthiazol-2-yl)-5-(3-carboxymethoxyphenyl)-2-(4-sulfophenyl)-2H-tetrazolium, inner salt; MTS] into formazan. Absorbance of formazan was read at 490 nm. The inhibitory activity of the test compound was quantified in a concentration response curve (CRC) experiment. Compounds were obtained as 10 mM stock solutions and were diluted 1 to 10 volumes with DMSO to yield a 1 mM solution. From this solution 2 μl were diluted with 998 μl growth medium. 100 μl of 2 μM compound solution was further diluted sequentially with a dilution factor of 2.5 by adding 150 μl growth medium. A total of 10 concentrations were tested ranging from 10 μM to 0.26 nM or from 1 μM to 0.07 nM.
U937 cells were cultured in RPM11640 Glutamax and 10% heat inactivated FBS. 50 μl cell suspension containing 1×10^6 cells/ml supplemented with 50 μM zVAD.fmk (Benzyloxycarbonyl-Val-Ala-Asp (OMe) fluoromethylketone) and 100 ng/ml recombinant human TNFα were dispensed in each well of a 96-well plate. 50 μl of compound dilutions (see above) were added and the cell suspension incubated overnight (18 to 24 hrs) at 37° C., 5% CO2 in a humidified atmosphere (95% rH). High (no compound) and low control (no TNFα, zVAD.fmk) were tested with 7 replicates; all compound concentrations were tested in duplicates on each experimental plate.
CellTiter 96 Aqueous reagent was mixed (100 μl PMS (phenazine methosulfate) solution/2 ml MTS (3-(4,5-[…])-5-(3-carboxymethoxyphenyl)-2-(4-sulfophenyl)-2H-tetrazolium, inner salt) solution) and 20 μl were added per well. After 4 hrs incubation at 37° C. (5% CO2 95% rH) optical density was measured at 490 nm on a microplate reader (Tecan Infinite M1000).
The % inhibition is expressed as percentage of the maximal inhibition value obtained in the absence of TNFα/zVAD.fmc.

Setting [1] is: U937 cells, 100 ng/ml TNFα + 50 μM zVAD.fmk, overnight (18 to 24 hrs), read-out: U937 IC50.
[2] abbreviates: own data, read-out: IC50 (U937).

Like-named read-outs stand apart in the source and are kept apart here.

`Cn1nccc1-c1cc(N2CCC(C(=O)N3OCC[C@H]3c3cc(F)cc(Cl)c3)CC2)ncn1` [Example 5, [(3S)-3-(3-Chloro-5-fluoro-phenyl)isoxazolidin-2-yl]-[1-[6-(2-methylpyrazol-3-yl)pyrimidin-4-yl]-4-piperidyl]methanone]: the IC50 under setting [1] was 3 nM. On the same count and under the same terms, with `Cc1cc(-c2cc(N3CCC(C(=O)N4OCC[C@H]4c4cc(F)cc(C#N)c4)CC3)ncn2)n(C)n1` [Example 9, 3-[(3S)-2-[1-[6-(2,5-Dimethylpyrazol-3-yl)pyrimidin-4-yl]piperidine-4-carbonyl]isoxazolidin-3-yl]-5-fluoro-benzonitrile] the figure was 15 nM; with `Cn1nccc1-c1ncnc(N2CCC(C(=O)N3OCC[C@H]3c3cc(F)cc(F)c3)CC2)c1F` [Example 15, [(3S)-3-(3,5-Difluorophenyl)isoxazolidin-2-yl]-[1-[5-fluoro-6-(2-methylpyrazol-3-yl)pyrimidin-4-yl]-4-piperidyl]methanone], 0.4 nM. Same read-out and setting: with `Cn1nncc1-c1cc(N2CCC(C(=O)N3OCC[C@H]3c3cc(F)cc(C#N)c3)CC2)ncn1` [Example 12, 3-Fluoro-5-[(3S)-2-[1-[6-(3-methyltriazol-4-yl)pyrimidin-4-yl]piperidine-4-carbonyl]isoxazolidin-3-yl]benzonitrile] the figure was 7 nM. Consider `Cc1c(F)cc([C@@H]2CCON2C(=O)C2CCN(c3cc(-n4cc(C5CC5)nc4C)ncn3)CC2)cc1C#N` [Example 8, 5-[(3S)-2-[1-[6-(4-Cyclopropyl-2-methyl-imidazol-1-yl)pyrimidin-4-yl]piperidine-4-carbonyl]isoxazolidin-3-yl]-3-fluoro-2-methyl-benzonitrile], for which the IC50 under setting [1] amounted to 1 nM and the IC50 under setting [2] is 1 nM. In the case of `Cc1nnc(-c2cc(N3CCC(C(=O)N4N=CC[C@H]4c4ccccc4)CC3)ncn2)o1` [Comparator Example C, [1-[6-(5-Methyl-1,3,4-oxadiazol-2-yl)pyrimidin-4-yl]-4-piperidyl]-[(3S)-3-phenyl-3,4-dihydropyrazol-2-yl]methanone, reference compound], the IC50 by setting is: under setting [1], 59 nM; (own data, read-out: pIC50 (U937) (converted)) 59 nM. Regarding `Cc1c(F)cc([C@@H]2CCON2C(=O)C2CCN(c3cc(-n4ccnc4C)ncn3)CC2)cc1C#N` [Example 2, 3-Fluoro-2-methyl-5-[(3S)-2-[1-[6-(2-methylimidazol-1-yl)pyrimidin-4-yl]piperidine-4-carbonyl]isoxazolidin-3-yl]benzonitrile], under setting [1], the IC50 was determined as 3.8 nM. `Cc1ncn(-c2cc(N3CCC(C(=O)N4OCC[C@H]4c4cc(F)cc(C#N)c4)CC3)ncn2)n1` [Example 10, 3-Fluoro-5-[(3S)-2-[1-[6-(3-methyl-1,2,4-triazol-1-yl)pyrimidin-4-yl]piperidine-4-carbonyl]isoxazolidin-3-yl]benzonitrile]: under setting [1], the IC50 stood at 2 nM. Turning to `Cn1nccc1-c1cc(N2CCC(C(=O)N3OCC[C@H]3c3cc(F)cc(F)c3)CC2)ncn1` [Example 4, [(3S)-3-(3,5-Difluorophenyl)isoxazolidin-2-yl]-[1-[6-(2-methylpyrazol-3-yl)pyrimidin-4-yl]-4-piperidyl]methanone], the IC50 under setting [1] amounted to 5 nM. In the case of `O=C(C1CCN(c2nccc(-c3ccccc3)n2)CC1)N1N=CCC1c1ccccc1` (centres unmarked) [Comparator Example A, (3-Phenyl-3,4-dihydropyrazol-2-yl)-[1-(4-phenylpyrimidin-2-yl)-4-piperidyl]methanone, reference compound], the IC50 is, setting by setting: under setting [1], 8 nM; under setting [2], 8 nM. For the compound `O=C(C1CCN(c2nccc(-c3ccccc3)n2)CC1)N1OCC[C@H]1c1ccccc1` [Comparator Example B, [(3S)-3-Phenylisoxazolidin-2-yl]-[1-(4-phenylpyrimidin-2-yl)-4-piperidyl]methanone, reference compound], the IC50 is, setting by setting: under setting [1], 9.4 nM; under setting [2], 9 nM. Regarding `Cn1nccc1-c1cc(N2CCC(C(=O)N3OCC[C@H]3c3cc(F)cc(C#N)c3)CC2)ncn1` [Example 3, 3-Fluoro-5-[(3S)-2-[1-[6-(2-methylpyrazol-3-yl)pyrimidin-4-yl]piperidine-4-carbonyl]isoxazolidin-3-yl]benzonitrile], the IC50 under setting [1] came out at 8.1 nM. Take `Cc1cnn(-c2ncnc(N3CCC(C(=O)N4OCC[C@H]4c4cc(F)c(C)c(C#N)c4)CC3)c2F)c1` [Example 14, 3-Fluoro-5-[(3S)-2-[1-[5-fluoro-6-(4-methylpyrazol-1-yl)pyrimidin-4-yl]piperidine-4-carbonyl]isoxazolidin-3-yl]-2-methyl-benzonitrile]: the IC50 under setting [1] was found to be 3.4 nM. The same measure, in the same setting: with `Cc1nccn1-c1ncnc(N2CCC(C(=O)N3OCC[C@H]3c3cc(F)cc(C#N)c3)CC2)c1F` [Example 13, 3-Fluoro-5-[(3S)-2-[1-[5-fluoro-6-(2-methylimidazol-1-yl)pyrimidin-4-yl]piperidine-4-carbonyl]isoxazolidin-3-yl]benzonitrile] the figure was 4.3 nM. For `Cc1nnc(-c2cc(N3CCC(C(=O)N4OCC[C@H]4c4ccccc4)CC3)ncn2)o1` [Comparator Example D, [1-[6-(5-Methyl-1,3,4-oxadiazol-2-yl)pyrimidin-4-yl]-4-piperidyl]-[(3S)-3-phenylisoxazolidin-2-yl]methanone, reference compound], the IC50 under setting [1] is 92 nM and the IC50 under setting [2] was found to be 92 nM. Turning to `Cc1ncnn1-c1cc(N2CCC(C(=O)N3OCC[C@H]3c3cc(F)cc(C#N)c3)CC2)ncn1` [Example 11, 3-Fluoro-5-[(3S)-2-[1-[6-(5-methyl-1,2,4-triazol-1-yl)pyrimidin-4-yl]piperidine-4-carbonyl]isoxazolidin-3-yl]benzonitrile], the IC50 under setting [1] is 9.3 nM. Consider `Cc1n[nH]cc1-c1cc(N2CCC(C(=O)N3OCC[C@H]3c3cc(F)cc(C#N)c3)CC2)ncn1` [Example 6, 3-Fluoro-5-[(3S)-2-[1-[6-(3-methyl-1H-pyrazol-4-yl)pyrimidin-4-yl]piperidine-4-carbonyl]isoxazolidin-3-yl]benzonitrile], for which, under setting [1], the IC50 came out at 11.7 nM. On the same count and under the same terms, with `Cc1nc(C2CC2)cn1-c1cc(N2CCC(C(=O)N3OCC[C@H]3c3cc(F)cc(C#N)c3)CC2)ncn1` [Example 7, 3-[(3S)-2-[1-[6-(4-Cyclopropyl-2-methyl-imidazol-1-yl)pyrimidin-4-yl]piperidine-4-carbonyl]isoxazolidin-3-yl]-5-fluoro-benzonitrile] the figure was 3.6 nM. Turning to `Cc1nnc(-c2cc(N3CCC(C(=O)N4OCC[C@H]4c4cc(F)cc(C#N)c4)CC3)ncn2)o1` [Comparator Example E, 3-Fluoro-5-[(3S)-2-[1-[6-(5-methyl-1,3,4-oxadiazol-2-yl)pyrimidin-4-yl]piperidine-4-carbonyl]isoxazolidin-3-yl]benzonitrile, reference compound], the IC50 worked out at 197 nM under setting [1] and 197 nM under setting [2]. With `Cc1nccn1-c1cc(N2CCC(C(=O)N3OCC[C@H]3c3cc(F)cc(C#N)c3)CC2)ncn1` [Example 1, 3-Fluoro-5-[(3S)-2-[1-[6-(2-methylimidazol-1-yl)pyrimidin-4-yl]piperidine-4-carbonyl]isoxazolidin-3-yl]benzonitrile], the IC50 under setting [1] was 5.9 nM.

These data come from patent publication US11897876B2, “Isoxazolidines as RIPK1 inhibitors and use thereof” (GENZYME CORPORATION, priority 2022, dated 2024).
